Data taken from US20050220779A1, “Integrin linked kinase modulation of macrophage activation” (priority 2001, published 2005).

Assays:
[1] = biological target: SRC (Homo sapiens, UniProt P12931); assay: Protein kinase selectivity, SRC; type: biochemical
[2] = biological target: CDC2 (Homo sapiens, UniProt P06493); assay: Protein kinase selectivity, CDC2; type: biochemical
[3] = tested on: HUVEC cells; assay: In vitro Matrigel morphogenesis (tube formation) assay of VEGF stimulated HUVEC cells; type: cell-based, human; conditions: 100 mM (so in the source)
Description: In Vitro Angiogenesis. […] After 5 hours of incubation in a 5% CO2-humidified atmosphere at 37 °C, the three-dimensional organization of the cells was examined using an inverted photomicroscope. The cells were fixed with Crystal Violet (0.05% in 20% ethanol) and digitally photographed.
To determine the anti-angiogenic properties of ILK inhibitors, an in vitro Matrigel morphogenesis assay was established. This assay evaluates the ability of endothelial cells to differentiate into capillary-like structures, a crucial step during neovascularization. HUVEC cells when stimulated with VEGF and seeded onto Matrigel rapidly attach to the matrix and begin to migrate and interact with the extracellular matrix proteins present in the Matrigel. […] These capillary-like structures can be assessed by histology (FIG. 2). Samples are cut on a cross section and subsequent viewed using an electron microscope. Typically, cylindrical formations with a lumen are observed. A distinct difference in the morphology of tube formation on Matrigel, compared to other in vitro angiogenesis assays is a reduction in the proliferation of endothelial cells. […] Using this model system, both inhibitors and stimulators of angiogenesis can be assessed prior to in vivo testing.
The assay was established and reproducibility confirmed. SU5416, shown to inhibit angiogenesis in other assays, was also evaluated. […]

[4] = biological target: GSK3β (Homo sapiens, UniProt P49841); assay: Protein kinase selectivity, GSK3β; type: biochemical
Chain of GSK3β (P49841 whole entry, species assumed): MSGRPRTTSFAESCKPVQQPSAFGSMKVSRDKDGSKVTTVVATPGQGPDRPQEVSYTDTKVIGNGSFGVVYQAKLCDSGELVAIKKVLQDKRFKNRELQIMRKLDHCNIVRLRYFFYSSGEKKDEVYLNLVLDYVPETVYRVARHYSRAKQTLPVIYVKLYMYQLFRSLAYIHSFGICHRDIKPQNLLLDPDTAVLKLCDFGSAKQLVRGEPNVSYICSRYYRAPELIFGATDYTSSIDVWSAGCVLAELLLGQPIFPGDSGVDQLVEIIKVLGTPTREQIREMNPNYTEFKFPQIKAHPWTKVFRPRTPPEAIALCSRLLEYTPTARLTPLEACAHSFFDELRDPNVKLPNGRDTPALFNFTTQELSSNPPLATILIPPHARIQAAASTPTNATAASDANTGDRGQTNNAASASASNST

[5] = biological target: CK2 (Homo sapiens, UniProt P68400); assay: Protein kinase selectivity, CK2; type: biochemical
Chain of CK2 (P68400 whole entry): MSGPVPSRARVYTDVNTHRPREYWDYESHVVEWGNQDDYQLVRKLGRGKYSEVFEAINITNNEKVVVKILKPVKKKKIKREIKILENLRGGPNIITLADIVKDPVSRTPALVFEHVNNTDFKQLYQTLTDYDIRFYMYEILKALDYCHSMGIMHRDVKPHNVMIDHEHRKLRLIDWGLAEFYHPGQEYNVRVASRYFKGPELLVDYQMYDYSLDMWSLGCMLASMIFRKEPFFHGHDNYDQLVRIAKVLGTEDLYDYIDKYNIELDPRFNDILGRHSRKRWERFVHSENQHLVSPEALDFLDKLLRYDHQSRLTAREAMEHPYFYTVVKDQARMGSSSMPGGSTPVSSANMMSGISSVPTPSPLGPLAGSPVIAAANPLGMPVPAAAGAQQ

Chain of SRC (P12931 whole entry, species assumed): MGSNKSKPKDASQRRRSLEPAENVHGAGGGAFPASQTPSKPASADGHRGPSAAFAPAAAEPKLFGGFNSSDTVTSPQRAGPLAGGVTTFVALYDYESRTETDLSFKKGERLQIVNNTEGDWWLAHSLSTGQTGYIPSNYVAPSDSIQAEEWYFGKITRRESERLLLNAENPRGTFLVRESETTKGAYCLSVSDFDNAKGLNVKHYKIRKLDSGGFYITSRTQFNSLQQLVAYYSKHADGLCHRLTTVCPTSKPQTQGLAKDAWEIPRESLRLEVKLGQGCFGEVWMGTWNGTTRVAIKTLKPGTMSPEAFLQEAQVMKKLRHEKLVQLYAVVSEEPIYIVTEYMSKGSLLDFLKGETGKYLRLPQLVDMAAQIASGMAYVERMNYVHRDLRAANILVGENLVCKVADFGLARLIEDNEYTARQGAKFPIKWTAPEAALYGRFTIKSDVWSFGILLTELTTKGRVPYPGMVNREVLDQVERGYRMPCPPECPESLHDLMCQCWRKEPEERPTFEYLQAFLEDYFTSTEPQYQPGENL
Chain of CDC2 (P06493 whole entry, species assumed): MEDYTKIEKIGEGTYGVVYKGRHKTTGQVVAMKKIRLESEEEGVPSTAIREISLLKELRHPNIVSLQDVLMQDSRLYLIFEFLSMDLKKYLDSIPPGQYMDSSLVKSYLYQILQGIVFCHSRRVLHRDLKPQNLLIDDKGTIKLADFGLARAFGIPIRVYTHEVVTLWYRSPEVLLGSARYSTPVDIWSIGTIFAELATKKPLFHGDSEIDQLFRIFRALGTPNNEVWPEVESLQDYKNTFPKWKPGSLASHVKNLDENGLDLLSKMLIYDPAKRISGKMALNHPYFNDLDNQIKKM
Chain of CDC2 (P14635 whole entry partner, species assumed): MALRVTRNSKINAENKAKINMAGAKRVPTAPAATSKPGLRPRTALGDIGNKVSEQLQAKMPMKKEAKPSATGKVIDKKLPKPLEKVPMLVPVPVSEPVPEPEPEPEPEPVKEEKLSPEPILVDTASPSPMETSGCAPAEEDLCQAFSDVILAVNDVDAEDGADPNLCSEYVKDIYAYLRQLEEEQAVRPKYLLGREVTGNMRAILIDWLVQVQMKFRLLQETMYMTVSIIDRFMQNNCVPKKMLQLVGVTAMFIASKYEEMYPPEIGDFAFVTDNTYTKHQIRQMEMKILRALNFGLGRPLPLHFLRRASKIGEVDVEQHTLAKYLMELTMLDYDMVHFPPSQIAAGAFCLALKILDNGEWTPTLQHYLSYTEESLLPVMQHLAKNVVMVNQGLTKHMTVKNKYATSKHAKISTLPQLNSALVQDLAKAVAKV

Oc1ccc2c(c1)CC1NCCc3cc(O)c(O)c-2c31 (centres unmarked) [KP-21849, 5,6,6a,7-Tetrahydro-4H-dibenzo[de,g]quinoline-1,2,9-triol]
Inhibition of SRC (in words) [1]: does not significantly inhibit | Inhibition of CDC2 (in words) [2]: does not significantly inhibit | Effect on endothelial cell morphogenesis (in words) [3]: profound effect on HUVEC cells | Inhibition of GSK3β (in words) [4]: does not significantly inhibit | Inhibition of CK2 (in words) [5]: does not significantly inhibit
